In patent publication US20170050939A1, “SMALL MOLECULE INHIBITORS OF G PROTEIN COUPLED RECEPTOR 6 KINASE POLYPEPTIDES” (Mayo Foundation for Medical Education and Research, priority 2014, published 2017):
Like-named read-outs stand apart in the source and are kept apart here.

Molecular target: T1, GRK6, recombinant full-length GST-tagged human protein (Homo sapiens, UniProt P43250)
T1 construct: GRK6, recombinant full-length GST-tagged human protein; GST
Test: GRK6 IC50 determination (8-point concentration-response)
Format: biochemical
Text: Two hundred forty compounds were further characterized by determining IC50 values in a GRK6 assay. This screen has been previously described in WO 2013/063458, which is incorporated by reference in its entirety herein.

[1] = 20 nM GRK6, 12 μM ATP (Km), 1 μM Peptide 216, 7 h incubation

T1 sequence (P43250 whole entry): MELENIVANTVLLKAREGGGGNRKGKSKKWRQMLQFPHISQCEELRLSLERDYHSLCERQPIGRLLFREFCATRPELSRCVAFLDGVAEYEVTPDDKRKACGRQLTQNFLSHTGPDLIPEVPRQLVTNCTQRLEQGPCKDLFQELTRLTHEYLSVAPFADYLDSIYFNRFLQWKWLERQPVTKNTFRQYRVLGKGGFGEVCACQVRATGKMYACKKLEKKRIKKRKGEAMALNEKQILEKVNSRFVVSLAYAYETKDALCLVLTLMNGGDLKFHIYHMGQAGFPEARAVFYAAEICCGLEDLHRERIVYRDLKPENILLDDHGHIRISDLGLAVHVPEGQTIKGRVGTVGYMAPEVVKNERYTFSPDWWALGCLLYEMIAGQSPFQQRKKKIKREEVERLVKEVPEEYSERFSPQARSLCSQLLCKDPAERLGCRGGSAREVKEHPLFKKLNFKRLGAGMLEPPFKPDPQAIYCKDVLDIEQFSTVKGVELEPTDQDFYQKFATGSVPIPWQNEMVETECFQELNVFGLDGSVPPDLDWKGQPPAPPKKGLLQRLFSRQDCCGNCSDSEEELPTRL

Row | SMILES | IC50 | IC50 [1]
1 | CCn1cc(-c2cc(-c3nnc(SCC(=O)O)[nH]3)cc([N+](=O)[O-])c2)cn1 [Compound 73] | 0.342 µM | 
2 | O=C(O)CSc1nnc(-c2cc(-c3cn[nH]c3)cc([N+](=O)[O-])c2)[nH]1 [Compound 74] | 0.379 µM | 
3 | Cn1ccc(-c2cc(-c3nnc(SCC(=O)O)[nH]3)cc([N+](=O)[O-])c2)n1 [Compound 75] | 0.431 µM | 
4 | COc1ccc2cc(-c3nnc(SCC(=O)O)[nH]3)ccc2c1 [Compound 76] | 0.653 µM | 
5 | O=C(O)CSc1nnc(-c2cc(OCc3ccccc3)cc([N+](=O)[O-])c2)[nH]1 [Compound 77] | 0.695 µM | 
6 | O=C(O)CSc1nnc(-c2cc(-c3cc[nH]n3)cc([N+](=O)[O-])c2)[nH]1 [Compound 78] | 0.742 µM | 
7 | Cc1nn(C)cc1-c1cc(-c2nnc(SCC(=O)O)[nH]2)cc([N+](=O)[O-])c1 [Compound 79] | 0.75 µM | 
8 | O=C(O)CSc1nnc(-c2cccc(-c3cccs3)c2)[nH]1 [Compound 81] |  | 0.757 µM
9 | O=C(O)CSc1nnc(-c2cc(C(=O)Nc3ccccc3)cc([N+](=O)[O-])c2)[nH]1 [Compound 82] | 0.761 µM | 
10 | Cc1c(-c2cc(-c3nnc(SCC(=O)O)[nH]3)cc([N+](=O)[O-])c2)cnn1C [Compound 83] | 0.797 µM | 
11 | Cc1onc(-c2ccccc2)c1-c1cc(-c2nnc(SCC(=O)O)[nH]2)cc([N+](=O)[O-])c1 [Compound 84] | 0.879 µM | 
12 | O=C(O)CSc1nnc(-c2ccc3ccccc3c2)[nH]1 [Compound 85] | 0.886 µM | 
13 | O=C(O)CSc1nnc(-c2ccc(OCc3ccccc3)c([N+](=O)[O-])c2)[nH]1 [Compound 86] | 0.935 µM | 
14 | Cn1nccc1-c1cc(-c2nnc(SCC(=O)O)[nH]2)cc([N+](=O)[O-])c1 [Compound 88] | 1.05 µM | 
15 | O=C(O)CSc1nnc(-c2cc(Br)ccc2O)[nH]1 [Compound 89] |  | 1.05 µM
16 | O=C(O)CSc1nnc(-c2cc(Br)cc([N+](=O)[O-])c2)[nH]1 [Compound 90] | 1.35 µM | 

Row | SMILES | IC50 | IC50 [1]
17 | Cc1noc(C)c1-c1cc(-c2nnc(SCC(=O)O)[nH]2)cc([N+](=O)[O-])c1 [Compound 91] | 1.38 µM | 
18 | O=C(O)CSc1nnc(-c2cccc([N+](=O)[O-])c2)[nH]1 [Compound 92] |  | 1.4 µM
19 | Cc1nn(C)c(C)c1-c1cc(-c2nnc(SCC(=O)O)[nH]2)cc([N+](=O)[O-])c1 [Compound 93] | 1.57 µM | 
20 | O=C(O)CSc1nnc(-c2cc(C(=O)NCc3ccccc3)cc([N+](=O)[O-])c2)[nH]1 [Compound 94] | 1.57 µM | 
21 | O=C(O)CSc1nnc(-c2cc(-c3cnn(CC(=O)O)c3)cc([N+](=O)[O-])c2)[nH]1 [Compound 95] | 2.02 µM | 
22 | N#Cc1cccc(-c2nnc(SCC(=O)O)[nH]2)c1 [Compound 96] |  | 2.31 µM
23 | Cn1nc(C(F)(F)F)cc1-c1cc(-c2nnc(SCC(=O)O)[nH]2)cc([N+](=O)[O-])c1 [Compound 97] | 2.49 µM | 
24 | COc1cc(F)cc(-c2nnc(SCC(=O)O)[nH]2)c1 [Compound 98] |  | 2.61 µM
25 | Cc1ccc(O)c(-c2nnc(SCC(=O)O)[nH]2)c1 [Compound 99] |  | 2.71 µM
26 | CC(C)CNC(=O)c1cc(-c2nnc(SCC(=O)O)[nH]2)cc([N+](=O)[O-])c1 [Compound 100] | 2.75 µM | 
27 | O=C(O)CSc1nnc(-c2cccc(C(F)(F)F)c2)[nH]1 [Compound 101] |  | 3.02 µM
28 | O=C(O)CSc1nnc(-c2ccc3occc3c2)[nH]1 [Compound 102] | 3.08 µM | 
29 | COc1cc(-c2nnc(SCC(=O)O)[nH]2)cc(C)c1O [Compound 103] | 3.3 µM | 
30 | CC(C)Oc1ccc(-c2nnc(SCC(=O)O)[nH]2)cc1[N+](=O)[O-] [Compound 104] | 3.3 µM | 
31 | O=C(O)CSc1nnc(-c2cccc(C(=O)Nc3ccc4c(c3)NC(=O)C4)c2)[nH]1 [Compound 105] | 3.33 µM | 

Next, values leading:

Row | IC50 | IC50 [1] | SMILES
32 |  | 3.36 µM | O=C(O)CSc1nnc(-c2ccc(F)c(F)c2)[nH]1 [Compound 106]
33 | 3.39 µM |  | O=C(O)CSc1nnc(-c2ccc3ncccc3c2)[nH]1 [Compound 107]
34 | 3.47 µM |  | COc1cc(-c2nnc(SCC(=O)O)[nH]2)cc2c1OCO2 [Compound 108]
35 |  | 4.11 µM | CC(=O)c1cccc(-c2nnc(SCC(=O)O)[nH]2)c1 [Compound 110]
36 | 4.41 µM |  | O=C(O)CSc1nnc(-c2cc(C(=O)NCc3ccccn3)cc([N+](=O)[O-])c2)[nH]1 [Compound 111]
37 |  | 4.47 µM | O=C(O)CSc1nnc(-c2cccc(-n3cncn3)c2)[nH]1 [Compound 112]
38 |  | 4.55 µM | COc1ccc(O)c(-c2nnc(SCC(=O)O)[nH]2)c1 [Compound 113]
39 | 4.62 µM |  | COc1cc(-c2nnc(SCC(=O)O)[nH]2)ccc1F [Compound 114]
40 |  | 4.7 µM | O=C(O)CSc1nnc(-c2cccc(F)c2)[nH]1 [Compound 115]
41 | 4.78 µM |  | O=C(O)CSc1nnc(-c2cc(C(=O)NCc3cccnc3)cc([N+](=O)[O-])c2)[nH]1 [Compound 116]
42 | 4.85 µM |  | O=C(O)CSc1nnc(-c2ccc3nsnc3c2)[nH]1 [Compound 117]
43 |  | 4.99 µM | COc1ccc(-c2nnc(SCC(=O)O)[nH]2)cc1C [Compound 118]
44 |  | 5.02 µM | O=C(O)CSc1nnc(-c2ccc(O)c(O)c2)[nH]1 [Compound 119]
45 | 5.06 µM |  | O=C(O)CSc1nnc(-c2cc(Br)cc([N+](=O)[O-])c2)n1CC(=O)O [Compound 120]
46 |  | 5.85 µM | COc1cccc(-c2nnc(SCC(=O)O)[nH]2)c1 [Compound 121]
47 |  | 6.1 µM | COc1cc(OC)cc(-c2nnc(SCC(=O)O)[nH]2)c1 [Compound 122]
48 |  | 6.16 µM | O=C(O)CSc1nnc(-c2cc(O)ccc2O)[nH]1 [Compound 123]

Row | IC50 | IC50 [1] | SMILES
49 |  | 6.36 µM | CS(=O)(=O)c1cccc(-c2nnc(SCC(=O)O)[nH]2)c1 [Compound 124]
50 | 6.45 µM |  | O=C(O)CSc1nnc(-c2ccc3[nH]cnc3c2)[nH]1 [Compound 125]
51 |  | 6.5 µM | O=C(O)CSc1nnc(-c2cccc(-c3cnccn3)c2)[nH]1 [Compound 126]
52 |  | 6.54 µM | O=C(O)CSc1nnc(-c2cc(O)cc(O)c2)[nH]1 [Compound 127]
53 |  | 6.8 µM | O=C(O)CSc1nnc(-c2ccc(O)c([N+](=O)[O-])c2)[nH]1 [Compound 128]
54 |  | 6.88 µM | Cc1ccc(-c2nnc(SCC(=O)O)[nH]2)c(O)c1 [Compound 129]
55 | 6.93 µM |  | O=C(O)CSc1nnc(-c2cccc(C(=O)Nc3ccc4cn[nH]c4c3)c2)[nH]1 [Compound 130]
56 |  | 7.3 µM | O=C(O)CSc1nnc(-c2ccc(O)c(F)c2)[nH]1 [Compound 131]
57 |  | 7.36 µM | O=C(O)CSc1nnc(-c2ccc(-n3ccnc3)cc2)[nH]1 [Compound 132]
58 |  | 7.37 µM | O=C(O)CSc1nnc(-c2ccc(-c3ccccc3)cc2)[nH]1 [Compound 133]
59 |  | 7.45 µM | O=C(O)CSc1nnc(-c2ccc(-c3cncnc3)cc2)[nH]1 [Compound 134]
60 | 7.92 µM |  | O=C(O)CSc1nnc(-c2cccc(C(=O)Nc3cccc(Cl)c3)c2)[nH]1 [Compound 135]
61 | 7.93 µM |  | O=C(O)CSc1nnc(-c2ccc3c(c2)OC(F)(F)O3)[nH]1 [Compound 136]
62 |  | 8.23 µM | COc1cc(-c2nnc(SCC(=O)O)[nH]2)cc(OC)c1OC [Compound 137]
63 |  | 8.75 µM | O=C(O)CSc1nnc(-c2cccc(F)c2O)[nH]1 [Compound 138]
64 |  | 8.83 µM | COc1cc(-c2nnc(SCC(=O)O)[nH]2)ccc1OC(=O)C1CC1 [Compound 139]
65 |  | 8.83 µM | COc1cc(-c2nnc(SCC(=O)O)[nH]2)cc(OC)c1O [Compound 140]
